Here are results for eight compounds from article PMC11483378, “Triazole-Based Thiamine Analogues as Inhibitors of Thiamine Pyrophosphate-Dependent Enzymes: 1,3-Dicarboxylate for Metal Binding” (ACS Omega, 2024).

Each structure is given as a SMILES string. Where “and” joins values, the source holds several entries; their conditions need not be identical. Equal values may be shown once. Read-outs that look alike come from different tables or passages of the source.

A word on the IC50: it is the concentration that gives 50% inhibition. As usually defined, the Ki is the equilibrium dissociation constant of an inhibitor or competing ligand from its target. As a reminder, the inhibition is how much of the control response was suppressed.

The target in one experiment is T1, S. cerevisiae PDC (Saccharomyces cerevisiae, UniProt P06169).
T1 construct: purchased Sigma
T1 sequence (P06169 2-563 limits assumed): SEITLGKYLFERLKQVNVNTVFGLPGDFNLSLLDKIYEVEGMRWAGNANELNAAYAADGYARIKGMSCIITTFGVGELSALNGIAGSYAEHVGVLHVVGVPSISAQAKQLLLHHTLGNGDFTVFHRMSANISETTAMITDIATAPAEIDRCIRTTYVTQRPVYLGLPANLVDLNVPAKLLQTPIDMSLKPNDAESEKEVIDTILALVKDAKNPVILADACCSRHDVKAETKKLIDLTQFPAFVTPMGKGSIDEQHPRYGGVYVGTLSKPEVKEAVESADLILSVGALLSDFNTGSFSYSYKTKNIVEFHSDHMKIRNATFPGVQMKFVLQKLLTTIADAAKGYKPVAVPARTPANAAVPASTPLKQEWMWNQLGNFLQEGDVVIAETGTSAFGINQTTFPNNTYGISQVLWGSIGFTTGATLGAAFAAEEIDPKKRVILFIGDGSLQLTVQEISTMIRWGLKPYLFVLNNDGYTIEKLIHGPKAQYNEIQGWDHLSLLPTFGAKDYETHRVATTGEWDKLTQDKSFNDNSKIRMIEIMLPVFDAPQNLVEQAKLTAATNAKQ
The experiment is described as follows: S. cerevisiae PDC inhibitory activity assay (DCPIP reduction). Type of experiment: biochemical. Particulars: for % Inhibition (5:1): [Compound] = 750 μM, [TPP] = 150 μM; for inhibition at 750 µM: [Compound] = [TPP] = 750 μM, read-out: % Inhibition (1:1). How it is done: S. cerevisiae PDC was purchased from Sigma. S. cerevisiae PDC activity was determined by monitoring DCPIP reduction at 600 nm using a microplate reader (CLARIOstar) and conducted as described[5] with some modifications. […] The reaction buffer (50 mM KH2PO4 and 1 mM MgCl2, pH 7) contained TPP at specified concentrations, 0.27 mM DCPIP, and 0.15 mg/mL S. cerevisiae PDC. The reaction mixture was preincubated at 37 °C with the inhibitor for 60 min, and then the reaction was initiated by adding pyruvate to a final concentration of 70 mM. […] Specific activity was calculated using the molar extinction coefficient of DCPIP, 21 mM^–1 cm^–1.[28] The IC50 values were calculated from nonlinear regression curve fitting using GraphPad Prism.
(§1) Enzyme inhibitory activity assays – methods and results (Figures S1-4) […]
(§2) The compound […]
S. cerevisiae PDC inhibitory activity assay. S. cerevisiae PDC was purchased from Sigma. S. cerevisiae PDC activity was determined by monitoring DCPIP reduction at 600 nm using a microplate reader (CLARIOstar) and conducted as described3 with some modifications. The percentage inhibition of compounds against S. cerevisiae PDC was assayed at 750 μM. The reaction buffer (50 mM KH 2PO4 and 1 mM MgCl2, pH 7) contained TPP at specified concentrations, 0.27 mM DCPIP, and 0.15 mg/ml S. cerevisiae PDC. The reaction mixture was preincubated at 37 °C with the inhibitor for 60 min, then reaction was initiated by adding pyruvate to a final concentration of 70 mM. To determine the IC50, TPP concentration was set at 150 µM with varying inhibitor concentrations. Specific activity was […]
calculated from non-linear regression curve fitting using GraphPad Prism. […]

The target of another experiment is A. viridans PO (Aerococcus viridans, UniProt A9X9K8). The experiment is described as follows: A. viridans PO inhibitory activity assay (quinoneimine dye). It is filed as biochemical. The method, then: A. viridans PO and horseradish peroxidase were purchased from Sigma. A. viridans PO activity was determined by monitoring appearance of quinoneimine dye at 550 nm using a microplate reader (CLARIOstar) and conducted as described[5] with some modifications. […] The reaction buffer (50 mM KH2PO4 and 10 mM MgCl2, pH 5.9) contained TPP at specified concentrations, 10 μM flavin adenine dinucleotide, 0.15% 4-aminoantipyrine, 0.3% N-ethyl-N-(2-hydroxy-3-sulfopropyl)-m-toluidine (EHSPT), 50 μg/mL horseradish peroxidase, and 0.35 U/mL A. viridans PO. The reaction mixture was preincubated at 37 °C with inhibitor for 30 min, and then the reaction was initiated by adding pyruvate to a final concentration of 50 mM. To determine the IC50, TPP concentration was set at 60 μM with varying inhibitor concentrations. One unit of PO activity is defined as the production of 1 μmol of hydrogen peroxide per minute. The IC50 values were calculated from nonlinear regression curve fitting using GraphPad Prism.
A. viridans PO, sequence (A9X9K8 entry or part of it): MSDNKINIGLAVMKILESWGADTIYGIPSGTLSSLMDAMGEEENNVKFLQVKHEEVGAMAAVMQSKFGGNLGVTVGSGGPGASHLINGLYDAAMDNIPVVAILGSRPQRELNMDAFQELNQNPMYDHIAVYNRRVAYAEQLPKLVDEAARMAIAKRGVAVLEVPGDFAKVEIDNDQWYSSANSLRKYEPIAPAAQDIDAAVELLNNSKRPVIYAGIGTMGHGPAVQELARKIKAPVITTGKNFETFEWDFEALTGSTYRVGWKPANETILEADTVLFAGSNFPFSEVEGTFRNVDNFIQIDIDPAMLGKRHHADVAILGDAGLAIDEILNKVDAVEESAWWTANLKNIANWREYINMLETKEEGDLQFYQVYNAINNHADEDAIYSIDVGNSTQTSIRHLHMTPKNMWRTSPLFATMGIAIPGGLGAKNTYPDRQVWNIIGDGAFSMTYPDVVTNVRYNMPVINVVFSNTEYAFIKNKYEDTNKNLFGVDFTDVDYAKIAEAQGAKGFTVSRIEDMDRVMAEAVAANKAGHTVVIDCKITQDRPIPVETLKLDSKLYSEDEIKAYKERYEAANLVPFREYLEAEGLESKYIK
as §1, §2
A. viridans PO inhibitory activity assay. A. viridans PO and horseradish peroxidase were purchased from Sigma. A. viridans PO activity was determined by monitoring appearance of quinoneimine dye at 550 nm using a microplate reader (CLARIOstar) and conducted as described3 with some modifications. […]
buffer (50 mM KH2PO4 and 10 mM MgCl2, pH 5.9) contained TPP at specified concentrations, 10 µM flavin adenine dinucleotide (FAD), 0.15% 4-aminoantipyrine, 0.3% N-ethyl-N-(2-hydroxy-3-sulfopropyl)-m-toluidine (EHSPT), 50 µg/mL horseradish peroxidase and 0.35 U/mL A. viridans PO. The reaction mixture was preincubated at 37 °C with inhibitor for 30 min, then reaction was initiated by adding pyruvate to a final concentration of 50 mM. To determine the IC50, TPP concentration was set was set at 60 µM with varying inhibitor concentrations. One unit of PO activity is defined as the production of 1 μmol of hydrogen peroxide per minute. The IC 50 values were calculated from non-linear regression curve fitting using GraphPad Prism. […]

The mark [1] stands for this setting: [Compound] = 250 μM, [TPP] = 50 μM.
Setting [2] is: [Compound] = [TPP] = 250 μM; read-out: % Inhibition (1:1).
Setting [3] is: [TPP] = 60 µM; read-out: IC50 (μM ± SEM).
[4] abbreviates: calculated from KM(TPP) 5 µM using [TPP]/IC50 = KM(TPP)/KI; read-out: KI.
Setting [5] is: calculated from KM(TPP) 15 µM using [TPP]/IC50 = KM(TPP)/KI.
The mark [6] stands for this setting: read-out: IC50 (μM ± SEM), [TPP] = 150 µM.
The mark [7] stands for this setting: calculated from KM(TPP) 5 µM using [TPP]/IC50 = KM(TPP)/KI.
The mark [8] stands for this setting: read-out: IC50 (μM ± SEM); [TPP] = 60 µM.

In the case of `COC(=O)C(CCc1cn(Cc2cnc(C)nc2N)nn1)C(=O)OC` [13a], the IC50 at S. cerevisiae PDC is 939 ± 167 µM; at A. viridans PO (setting [3]), 189 ± 44 µM. Moreover, the inhibitory constant (Ki) at S. cerevisiae PDC is 94 µM; on A. viridans PO (setting [4]), 16 µM. Further, the “% Inhibition (5:1)” value is reported as 40 ± 4% on S. cerevisiae PDC and 62 ± 4% on A. viridans PO (setting [1]). Moreover, the inhibition at 750 µM on S. cerevisiae PDC was below 20%. The “vs TPP: affinity of the compound relative to that of TPP (= [TPP]/IC50)” value worked out at 0.16 on S. cerevisiae PDC ([TPP] = 150 µM) and 0.32 at A. viridans PO ([TPP] = 60 µM). For the same compound, on A. viridans PO (setting [2]), the inhibition at 250 µM was determined as 26 ± 4%.

`COC(=O)C(CCCc1cn(Cc2cnc(C)nc2N)nn1)C(=O)OC` [13b]: the 50% inhibitory concentration (IC50) at S. cerevisiae PDC was found to be 713 ± 139 µM; at A. viridans PO (setting [3]), 152 ± 24 µM. Moreover, the results for the inhibition constant Ki on S. cerevisiae PDC and at A. viridans PO (setting [4]) were 71 µM and 13 µM, respectively. For the same compound, the “% Inhibition (5:1)” value at S. cerevisiae PDC is reported as 52 ± 3%; at A. viridans PO (setting [1]), 65 ± 5%. The inhibition at 750 µM at S. cerevisiae PDC came out at 21 ± 5%. Besides, the “vs TPP: affinity of the compound relative to that of TPP (= [TPP]/IC50)” value at S. cerevisiae PDC ([TPP] = 150 µM) is reported as 0.21; at A. viridans PO ([TPP] = 60 µM), 0.39. For the same compound, the inhibition at 250 µM on A. viridans PO (setting [2]) came to 29 ± 4%.

Regarding `Cc1ncc(Cn2cc(CCC(C(=O)[O-])C(=O)[O-])nn2)c(N)n1.[K+].[K+]` [14a], the “% Inhibition (5:1)” value is recorded as 70 ± 2% on S. cerevisiae PDC and 76 ± 3% at A. viridans PO (setting [1]). In addition, at S. cerevisiae PDC, the inhibition at 750 µM was determined as 31 ± 3%. Further, the “vs TPP: affinity of the compound relative to that of TPP (= [TPP]/IC50)” value at S. cerevisiae PDC ([TPP] = 150 µM) turned out to be 0.47; at A. viridans PO ([TPP] = 60 µM), 0.69. Moreover, the Ki is 32 µM on S. cerevisiae PDC (setting [5]) and 7.3 µM at A. viridans PO (setting [7]). The IC50 on S. cerevisiae PDC (setting [6]) came out at 319 ± 57 µM; at A. viridans PO (setting [8]), 87 ± 11 µM. At A. viridans PO (setting [2]), the inhibition at 250 µM stood at 41 ± 3%.

For `Cc1ncc(Cn2cc(CCCC(C(=O)[O-])C(=O)[O-])nn2)c(N)n1.[K+].[K+]` [14b], the “% Inhibition (5:1)” value on S. cerevisiae PDC stood at 79 ± 3%; at A. viridans PO (setting [1]) it was 85 ± 4%. The inhibition at 750 µM at S. cerevisiae PDC was 42 ± 3%. Moreover, the “vs TPP: affinity of the compound relative to that of TPP (= [TPP]/IC50)” value on S. cerevisiae PDC ([TPP] = 150 µM) is 0.7 and 0.71; on A. viridans PO ([TPP] = 60 µM), 1.22. The figures for the inhibitory constant (Ki) on S. cerevisiae PDC (setting [5]) and at A. viridans PO (setting [7]) were 21 µM and 4.1 µM, respectively. Further, the figures for the IC50 at S. cerevisiae PDC (setting [6]) and on A. viridans PO (setting [8]) were 211 ± 39 µM and 49 ± 7 µM, respectively. Besides, the inhibition at 250 µM at A. viridans PO (setting [2]) turned out to be 55 ± 4%.

For the compound `COC(=O)CCCc1cn(Cc2cnc(C)nc2N)nn1` [15a], the values for the IC50 against S. cerevisiae PDC and at A. viridans PO (setting [3]) were 883 ± 144 µM and 274 ± 52 µM, respectively. In addition, the figures for the Ki on S. cerevisiae PDC and on A. viridans PO (setting [4]) were 88 µM and 23 µM, respectively. In addition, the “% Inhibition (5:1)” value came to 42 ± 3% at S. cerevisiae PDC and 52 ± 3% at A. viridans PO (setting [1]). In addition, the inhibition at 750 µM on S. cerevisiae PDC is below 20%. In addition, the “vs TPP: affinity of the compound relative to that of TPP (= [TPP]/IC50)” value on S. cerevisiae PDC ([TPP] = 150 µM) is 0.17; at A. viridans PO ([TPP] = 60 µM) it was 0.22. Besides, the inhibition at 250 µM at A. viridans PO (setting [2]) was determined as 21 ± 4%.

In the case of `COC(=O)CCCCc1cn(Cc2cnc(C)nc2N)nn1` [15b], the IC50 worked out at 789 ± 167 µM against S. cerevisiae PDC and 214 ± 31 µM at A. viridans PO (setting [3]). The inhibition constant Ki on S. cerevisiae PDC is 79 µM; on A. viridans PO (setting [4]) it was 18 µM. The figures for the “% Inhibition (5:1)” value on S. cerevisiae PDC and at A. viridans PO (setting [1]) were 47 ± 4% and 59 ± 3%, respectively. The inhibition at 750 µM at S. cerevisiae PDC was below 20%. Further, the “vs TPP: affinity of the compound relative to that of TPP (= [TPP]/IC50)” value on S. cerevisiae PDC ([TPP] = 150 µM) is recorded as 0.19; at A. viridans PO ([TPP] = 60 µM), 0.28. The inhibition at 250 µM at A. viridans PO (setting [2]) stood at 24 ± 4%.

For `Cc1ncc(Cn2cc(CCCC(=O)[O-])nn2)c(N)n1.[K+]` [16a], the “% Inhibition (5:1)” value at S. cerevisiae PDC was 55 ± 4%; at A. viridans PO (setting [1]), 59 ± 3%. Further, on S. cerevisiae PDC, the inhibition at 750 µM stood at 24 ± 4%. Further, the “vs TPP: affinity of the compound relative to that of TPP (= [TPP]/IC50)” value amounted to 0.26 at S. cerevisiae PDC ([TPP] = 150 µM) and 0.30 at A. viridans PO ([TPP] = 60 µM). Also, the figures for the Ki at S. cerevisiae PDC (setting [5]) and on A. viridans PO (setting [7]) were 58 µM and 17 µM, respectively. Moreover, the IC50 on S. cerevisiae PDC (setting [6]) was determined as 582 ± 88 µM; on A. viridans PO (setting [8]) it was 202 ± 34 µM. Also, on A. viridans PO (setting [2]), the inhibition at 250 µM turned out to be 22 ± 5%.

On to `Cc1ncc(Cn2cc(CCCCC(=O)[O-])nn2)c(N)n1.[K+]` [16b], for which the “% Inhibition (5:1)” value at S. cerevisiae PDC is listed as 60 ± 4%; at A. viridans PO (setting [1]), 63 ± 3%. For the same compound, at S. cerevisiae PDC, the inhibition at 750 µM was determined as 25 ± 5%. The “vs TPP: affinity of the compound relative to that of TPP (= [TPP]/IC50)” value turned out to be 0.30 on S. cerevisiae PDC ([TPP] = 150 µM) and 0.35 at A. viridans PO ([TPP] = 60 µM). In addition, the Ki is 50 µM on S. cerevisiae PDC (setting [5]) and 14 µM at A. viridans PO (setting [7]). Moreover, the IC50 at S. cerevisiae PDC (setting [6]) was 503 ± 76 µM; at A. viridans PO (setting [8]) it was 171 ± 29 µM. On A. viridans PO (setting [2]), the inhibition at 250 µM amounted to 28 ± 4%.
